Measured values as given in patent US9394307B2, “Fused heteroaryl pyridyl and phenyl benzenesuflonamides as CCR2 modulators for the treatment of inflammation” (ChemoCentryx, Inc., priority 2007, dated 2016).
pIC50: −log10 of the molar value. Where “and” joins values, the source holds several entries; their conditions need not be identical. Equal entries are not always repeated. Where two headings read alike, the source gives them in different places. Values belong to the compound of their own block, whether it stands above or below them.

Assays:
CYP3A4 = CYP3A4 (Homo sapiens (Human), UniProt P08684); assay: CYP3A4 inhibition assay in pooled human liver microsomes; type: in vitro ADME; conditions: NADPH, 37° C., read-out: CYP 3A4 Inhibition IC50
CYP3A4, sequence (P08684 whole entry): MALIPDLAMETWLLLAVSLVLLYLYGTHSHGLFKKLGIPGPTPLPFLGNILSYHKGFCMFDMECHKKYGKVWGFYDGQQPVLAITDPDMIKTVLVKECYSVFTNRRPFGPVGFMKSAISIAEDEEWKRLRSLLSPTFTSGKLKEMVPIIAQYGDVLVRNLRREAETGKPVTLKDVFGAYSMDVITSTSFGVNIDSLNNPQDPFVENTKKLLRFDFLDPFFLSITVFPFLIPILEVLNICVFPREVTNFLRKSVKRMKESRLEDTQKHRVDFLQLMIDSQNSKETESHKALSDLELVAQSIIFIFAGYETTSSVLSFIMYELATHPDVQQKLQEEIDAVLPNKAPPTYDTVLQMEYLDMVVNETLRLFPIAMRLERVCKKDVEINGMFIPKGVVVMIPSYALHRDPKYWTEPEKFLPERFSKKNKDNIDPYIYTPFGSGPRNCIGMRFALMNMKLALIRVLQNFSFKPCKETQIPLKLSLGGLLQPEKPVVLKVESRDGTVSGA
Protocol: (§1) The test compounds were incubated with pooled human liver microsomes at 37° C. in the presence of NADPH and appropriate concentrations of substrates specific for CYP2C9 and 3A4. The final assay concentrations of human liver microsomes and substrates, the initial substrate stock solution concentrations in DMSO, and the times used for the various isozyme incubations are summarized in Table 4.
(§2) 120 μL of a mixture of human liver microsomes (HLM) in 50 mM potassium phosphate/5 mM MgCl2 buffer was added into all wells of row A in a 96-well plate. The concentration of microsomal protein was 2-fold the intended protein concentration for the particular isozyme assay recorded in Table 4. In addition, 80 μL of this human liver microsome preparation spiked with 1% DMSO was dispensed into all wells of rows B through H.
1.2 μL of each individual test compound in DMSO (10 mM) was added to the first 10 wells of row A (5 different test compounds each in duplicate). Additionally, 1.2 μL of the DMSO stock of the control inhibitor for the isozyme under study was added into the final two wells of row A to give a concentration two-fold above the highest final concentration. (See Table 5 for the final control inhibitor concentrations)
This process was repeated for rows D through G. After mixing, 40 μL was removed and discarded from the wells of row G.
The plate was covered and pre-incubated for 10 minutes in a 37° C. incubator. […]
(§3) Samples were analyzed by the LC-MS/MS method. Each metabolite (Table 6) derived from the particular substrate for each different CYP450 isoform was monitored. […]
(§4) AUCtest, AUCcontrol and AUCblank are the peak area count for the metabolite of the control in the presence of test article or positive inhibitor, the peak area count of metabolite of the control without test article, and peak area count observed in the microsome blank, respectively. […] The IC50 values were calculated using a 4-parameter fit in XLFit™ (IDBS Lid, Guildford, UK).

[1] = Intravenous/oral pharmacokinetic study in Sprague-Dawley rats; type: in vivo; conditions: rat, plasma, male Sprague-Dawley rats; for MRT: read-out: Rat PK MRT (converted); for half-life: read-out: Rat PK T1/2
Protocol: An intravenous/oral pharmacokinetic study with the selected compounds was conducted in male Sprague-Dawley rats weighing between 0.24 and 0.36 kg. Blood samples were collected at predetermined time points and the corresponding plasma samples from the animals were analyzed for test compound concentrations using an LC-MS/MS method. The pharmacokinetic parameters were derived from the plasma concentration versus time curve.
Eight animals weighing between 0.24 and 0.36 kg were used for this study. Two animals were used for the i.v. dosing, whereas the later six were for oral dosing.
For i.v. dosing, a solution formulation of test compound was prepared in propylene glycol/N,N-dimethyl acetamide/EtOH (31.6/31.6/36.8) at 1 mg/mL and each animal received 1 mL/kg. For oral dosing, a the test compounds were suspended in 1% HPMC at 0.5 mg/mL and each animal received 10 mL/kg.
Animals were fasted overnight and examined prior to dosing and at the conclusion of the study. For intravenous dosing, blood (0.2 mL) was drawn at pre-dose and at 2, 5, 10, 15, and 30 minutes, 1, 2, 4, 6, and 8 hours post-dose. For oral dosing, blood (0.2 mL) was drawn at pre-dose and at 5, 15, and 30 minutes, 1, 1.5, 2, 4, 6, 8, and 24 hours post-dose. Blood was sampled from canulated animals and then placed into chilled polypropylene tubes containing sodium EDTA as the anticoagulant and kept on ice until centrifugation. Plasma was collected through centrifugation (Eppendorf Centriguge 5417R) at 12000 rpm and 4° C. for 6 minutes and stored at −20° C. until analysis.
Plasma samples (50 μL) were extracted with 150 μL acetonitrile containing the internal standard on a linear shaker for 10 min. The samples were centrifuged at 4450 RPM for 10 min at 4° C. (Allegra X-15R centrifuge, Beckman Coulter, Inc., Fullerton, Calif.). 80 μL of the resultant supernatant was transferred into new plate wells containing 80 μL 0.1% formic acid in water and thoroughly mixed.
Extracted samples prepared using the above procedure were separated by high-performance liquid chromatography using a Shimadzu (Kyoto, Japan) system equipped with two LC-10 AD pumps and a C-18 column (Waters Sunfire, 2×30 mm, 3.5 μm; 10 μl injection) using a mobile phase consisting of (A) 0.1% formic acid in water and (B) 0.1% formic acid in acetonitrile, at a flow rate of 0.35 mL/min. The gradient was 0-1.5 min 5% B, 1.5-2.5 min 5-95% B, 2.5-2.7 min 95% to 5% B, and 2.7-4.0 min 5% B. The HPLC elute was routed into an Applied Biosystems (Foster City, Calif.) Sciex API 3000 triple quadrupole mass spectrometer, operating in the Turbo Ionspray positive ionization MS/MS mode for analysis. Acquisition and integration were performed with Applied Biosystems-Sciex Analyst software (version 1.4.1). The calibration curve was obtained through a quadratic (i.v.) or linear (p.o.) regression and the calibration range was 4-5000 ng/mL and 2-5000 ng/mL for the i.v. and p.o. studies, respectively.
A total of eleven time points were obtained for each dosing route during the blood collection period. Descriptive pharmacokinetic parameters were determined from the plasma concentration-time curve by a standard non-compartmental analysis (Wagner, 1993) from each animal and dose route. • Half-life (T1/2): Terminal half-life. • Cmax: Maximum plasma concentration • AUC0-∞: Area under the plasma concentration-time curve from time of dosing extrapolated to infinity. • CL: Total body clearance. • MRT0-∞: Mean residence time from the time of dosing extrapolated to infinity • Vdss: Volume of distribution at steady state. • F: Bioavailability.
Pharmacokinetic analysis was performed by using XLFit® v.4.1 (ID Business Solutions Inc., Alameda, Calif.).

CYP2C9 = CYP2C9 (Homo sapiens (Human), UniProt P11712); assay: CYP2C9 inhibition assay in pooled human liver microsomes; type: in vitro ADME; conditions: NADPH, 37° C., diclofenac substrate, read-out: CYP 2C9 Inhibition IC50
CYP2C9, sequence (P11712 whole entry): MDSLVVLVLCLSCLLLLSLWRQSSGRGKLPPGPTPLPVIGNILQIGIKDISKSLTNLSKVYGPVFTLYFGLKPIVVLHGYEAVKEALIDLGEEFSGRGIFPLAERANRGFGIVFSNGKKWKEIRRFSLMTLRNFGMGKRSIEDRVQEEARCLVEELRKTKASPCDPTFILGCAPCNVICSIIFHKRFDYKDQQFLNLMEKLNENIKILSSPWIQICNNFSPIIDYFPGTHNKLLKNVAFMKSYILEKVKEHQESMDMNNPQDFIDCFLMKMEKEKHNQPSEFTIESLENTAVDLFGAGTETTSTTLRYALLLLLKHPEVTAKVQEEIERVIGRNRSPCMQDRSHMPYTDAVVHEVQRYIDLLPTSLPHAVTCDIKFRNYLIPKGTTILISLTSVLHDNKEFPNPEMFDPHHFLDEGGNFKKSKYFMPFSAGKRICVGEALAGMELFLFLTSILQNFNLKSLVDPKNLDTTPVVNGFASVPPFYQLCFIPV
Protocol: as §1
as §2, with “H. […]” for “H.”
as §3, §4

CCR2 = CCR2 (Homo sapiens (Human), UniProt P41597); assay: CCR2 chemotaxis assay (conventional migration assay, THP-1 cells, MCP-1); type: cell-based
CCR2, sequence (P41597 other isoform, or with tags, fused parts or gaps isoform P41597-2): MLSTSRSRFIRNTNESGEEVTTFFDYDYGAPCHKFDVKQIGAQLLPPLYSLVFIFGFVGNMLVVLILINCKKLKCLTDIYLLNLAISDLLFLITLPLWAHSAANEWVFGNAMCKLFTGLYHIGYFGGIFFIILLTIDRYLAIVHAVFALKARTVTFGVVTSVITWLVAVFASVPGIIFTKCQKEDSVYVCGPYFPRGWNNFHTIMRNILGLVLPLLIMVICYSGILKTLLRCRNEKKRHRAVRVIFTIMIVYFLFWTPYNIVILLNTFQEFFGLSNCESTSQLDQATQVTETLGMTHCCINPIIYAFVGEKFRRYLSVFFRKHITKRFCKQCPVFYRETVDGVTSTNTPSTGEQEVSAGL

in vivo = conditions: male, beagle, dog, plasma
[2] = Pharmacokinetics and oral bioavailability in the beagle dog; conditions: male beagle dog, oral 5 mg/kg vs i.v. 1 mg/kg
[3] = THP-1 cells, 0.1 nM MCP-1, read-out: IC50 in the CCR2 chemotaxis assay

Structure (SMILES): O=C(c1ncc(Cl)cc1NS(=O)(=O)c1ccc(Cl)c(C(F)(F)F)c1)c1ncnc2[nH]ccc12
pIC50 (CYP2C9): 4.82
MRT [1]: 1.13 h
half-life [1]: 2.12 h

Structure (SMILES): Cc1cnc(C(=O)c2ncnc3[nH]ccc23)c(NS(=O)(=O)c2ccc(Cl)c(C(F)(F)F)c2)c1 [Compound 5, 4-Chloro-N-[5-methyl-2-(7H-pyrrolo[2,3-d]pyrimidine-4-carbonyl)-pyridin-3-yl]-3-trifluoromethyl-benzenesulfonamide]
pIC50 (CCR2): ~8.30
MRT (in vivo; iv, 1 mg/kg): 7.2 h
Vd (in vivo; iv, 1 mg/kg): 0.1 L/kg
clearance (in vivo; iv, 1 mg/kg): 0.2 mL/min/kg
half-life (in vivo; iv, 1 mg/kg): 4.7 h
bioavailability (in vivo; oral, 5 mg/kg): ~100%
Cmax (in vivo; po, 5 mg/kg): 44400 ng/mL and ~59.5 µM
Tmax (in vivo; po, 5 mg/kg): 1.5 h
oral bioavailability [2]: about 100%

Structure (SMILES): O=C(c1ncc(Cl)cc1NS(=O)(=O)c1ccc(Cl)c(C(F)(F)F)c1)c1cncc2[nH]ccc12 [Compound 11, 4-Chloro-N-[5-chloro-2-(1H-pyrrolo[2,3-c]pyridine-4-carbonyl)-pyridin-3-yl]-3-trifluoromethyl-benzenesulfonamide]
pIC50 (CCR2; [3]): > 6.00

Structure (SMILES): Cc1cnc(C(=O)c2cncc3[nH]ccc23)c(NS(=O)(=O)c2ccc(Cl)c(Cl)c2)c1 [Compound 12, 3,4-Dichloro-N-[5-methyl-2-(1H-pyrrolo[2,3-c]pyridine-4-carbonyl)-pyridin-3-yl]-benzenesulfonamide]
pIC50 (CCR2; [3]): > 6.00

Structure (SMILES): Cc1cnc(C(=O)c2ncnc3[nH]ccc23)c(NS(=O)(=O)c2ccc(Cl)c(C(F)(F)F)c2)c1 [drawing 76]
pIC50 (CYP3A4): 4.70
MRT [1]: 2.25 h

Structure (SMILES): Cc1cnc(C(=O)c2ncnc3[nH]ccc23)c(NS(=O)(=O)c2ccc(Cl)c(C(F)(F)F)c2)c1 [drawing 78]
half-life [1]: 2.68 h

Other lines, results leading:

pIC50 (CYP3A4): 5.52
MRT [1]: 0.583 h
Structure (SMILES): Cc1cnc(C(=O)c2ccnc3[nH]ncc23)c(NS(=O)(=O)c2ccc(Cl)c(C(F)(F)F)c2)c1

pIC50 (CYP3A4): 5.52
MRT [1]: 0.367 h
half-life [1]: 0.317 h
Structure (SMILES): COC1=C(C(=O)c2ncc(C)cc2NS(=O)(=O)c2ccc(Cl)c(C(F)(F)F)c2)C2C=CNC2N=C1 (stereo not shown)

pIC50 (CYP2C9): 5.52
MRT [1]: 0.35 h
half-life [1]: 0.7 h
Structure (SMILES): O=C(C1=CC=NC2NC=CC12)c1ncc(Cl)cc1NS(=O)(=O)c1ccc(Cl)c(C(F)(F)F)c1 (stereo not shown)
